ChEMBL document CHEMBL1201862, “PubChem BioAssay data set” (2004)
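How tested: cells in 96-well plates exposed to compound for 48 hours at five concentrations. At the GI50, growth is halved.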 Active and inactive are the calls of the source. Cut-off read from the data, not from the text of the source: active = GI50 up to about 1.1 µM and inactive = higher.

Legend:
Experiment in all cases: NCI tumour cell line growth inhibition, 48 h
HOP-92 = tested on: HOP-92
TK-10 = tested on: TK-10
SK-MEL-28 = tested on: SK-MEL-28
786-0 = tested on: 786-0
HOP-62 = tested on: HOP-62
NCI-H460 = tested on: NCI-H460
OVCAR-3 = tested on: OVCAR-3
LOX IMVI = tested on: LOX IMVI
HCT-15 = tested on: HCT-15
SNB-19 = tested on: SNB-19
UO-31 = tested on: UO-31
Malme-3M = tested on: Malme-3M
NCI-H23 = tested on: NCI-H23
CAKI-1 = tested on: CAKI-1
OVCAR-8 = tested on: OVCAR-8
SF-295 = tested on: SF-295
SR = tested on: SR
M14 = tested on: M14
HCT-116 = tested on: HCT-116
COLO 205 = tested on: COLO 205
CCRF-CEM = tested on: CCRF-CEM
NCI-H522 = tested on: NCI-H522
RPMI-8226 = tested on: RPMI-8226
NCI/ADR-RES = tested on: NCI/ADR-RES
BT-549 = tested on: BT-549
MDA-MB-231 = tested on: MDA-MB-231
HL-60 = tested on: HL-60
A549 = tested on: A549
SK-MEL-2 = tested on: SK-MEL-2
PC-3 = tested on: PC-3
KM12 = tested on: KM12
SF-539 = tested on: SF-539
EKVX = tested on: EKVX
SN12C = tested on: SN12C
OVCAR-4 = tested on: OVCAR-4
MOLT-4 = tested on: MOLT-4
UACC-257 = tested on: UACC-257
SF-268 = tested on: SF-268
DU-145 = tested on: DU-145
ACHN = tested on: ACHN
K562 = tested on: K562
NCI-H226 = tested on: NCI-H226
RXF 393 = tested on: RXF 393
OVCAR-5 = tested on: OVCAR-5
SK-MEL-5 = tested on: SK-MEL-5
HCC 2998 = tested on: HCC 2998
MCF7 = tested on: MCF7
U-251 = tested on: U-251
SNB-75 = tested on: SNB-75
IGROV-1 = tested on: IGROV-1
SW-620 = tested on: SW-620
MDA-MB-435 = tested on: MDA-MB-435
A498 = tested on: A498
HT-29 = tested on: HT-29
MDA-N = tested on: MDA-N
Hs-578T = tested on: Hs-578T
T47D = tested on: T47D
SK-OV-3 = tested on: SK-OV-3
UACC-62 = tested on: UACC-62

CCOc1nc(-c2ccccc2)cc(-c2ccc(N3CCOCC3)cc2)c1C#N
GI50 (HOP-92): > 100 µM (inactive) | GI50 (TK-10): > 100 µM (inactive) | GI50 (SK-MEL-28): > 100 µM (inactive) | GI50 (786-0): > 100 µM (inactive) | GI50 (HOP-62): > 100 µM (inactive) | GI50 (NCI-H460): > 100 µM (inactive) | GI50 (OVCAR-3): > 100 µM (inactive) | GI50 (LOX IMVI): > 100 µM (inactive) | GI50 (HCT-15): > 100 µM | GI50 (SNB-19): > 100 µM (inactive) | GI50 (UO-31): > 100 µM (inactive) | GI50 (Malme-3M): > 100 µM (inactive) | GI50 (NCI-H23): > 100 µM (inactive) | GI50 (CAKI-1): > 100 µM (inactive) | GI50 (OVCAR-8): > 100 µM (inactive) | GI50 (SF-295): 7.35 µM (inactive) | GI50 (SR): > 100 µM (inactive) | GI50 (M14): > 100 µM (inactive) | GI50 (HCT-116): > 100 µM (inactive) | GI50 (COLO 205): > 100 µM (inactive) | GI50 (CCRF-CEM): > 100 µM (inactive) | GI50 (NCI-H522): > 100 µM (inactive) | GI50 (RPMI-8226): 77.4 µM (inactive) | GI50 (NCI/ADR-RES): > 100 µM (inactive) | GI50 (BT-549): > 100 µM (inactive) | GI50 (MDA-MB-231): > 100 µM (inactive) | GI50 (HL-60): > 100 µM (inactive) | GI50 (A549): > 100 µM (inactive) | GI50 (SK-MEL-2): > 100 µM (inactive) | GI50 (PC-3): > 100 µM (inactive) | GI50 (KM12): > 100 µM (inactive) | GI50 (SF-539): > 100 µM (inactive) | GI50 (EKVX): > 100 µM (inactive) | GI50 (SN12C): > 100 µM (inactive) | GI50 (OVCAR-4): > 100 µM (inactive) | GI50 (MOLT-4): > 100 µM (inactive) | GI50 (UACC-257): 19.1 µM (inactive) | GI50 (SF-268): > 100 µM (inactive) | GI50 (DU-145): > 100 µM (inactive) | GI50 (ACHN): > 100 µM (inactive) | GI50 (K562): > 100 µM (inactive) | GI50 (NCI-H226): > 100 µM (inactive) | GI50 (RXF 393): > 100 µM (inactive) | GI50 (OVCAR-5): > 100 µM (inactive) | GI50 (SK-MEL-5): 42.5 µM (inactive) | GI50 (HCC 2998): > 100 µM (inactive) | GI50 (MCF7): > 100 µM (inactive) | GI50 (U-251): > 100 µM (inactive) | GI50 (SNB-75): > 100 µM (inactive) | GI50 (IGROV-1): > 100 µM (inactive) | GI50 (SW-620): > 100 µM (inactive) | GI50 (MDA-MB-435): > 100 µM (inactive) | GI50 (A498): > 100 µM (inactive) | GI50 (HT-29): > 100 µM (inactive) | GI50 (MDA-N): > 100 µM (inactive) | GI50 (Hs-578T): > 100 µM (inactive)

Nc1ccccc1SCc1csc(-c2ccc(Cl)cc2)n1
GI50 (HOP-92): 21.9 µM (inactive) | GI50 (TK-10): 38.1 µM (inactive) | GI50 (SK-MEL-28): 30.5 µM (inactive) | GI50 (786-0): 19.9 µM (inactive) | GI50 (HOP-62): 30.3 µM (inactive) | GI50 (NCI-H460): 26.2 µM (inactive) | GI50 (OVCAR-3): 20.2 µM (inactive) | GI50 (LOX IMVI): 16.9 µM (inactive) | GI50 (HCT-15): 26.1 µM | GI50 (T47D): 5.07 µM (inactive) | GI50 (SNB-19): 32.3 µM (inactive) | GI50 (UO-31): 15.8 µM (inactive) | GI50 (Malme-3M): 20.3 µM (inactive) | GI50 (NCI-H23): 24.7 µM (inactive) | GI50 (CAKI-1): 51.3 µM (inactive) | GI50 (OVCAR-8): 30.5 µM (inactive) | GI50 (SF-295): 41.2 µM (inactive) | GI50 (SR): 6.61 µM (inactive) | GI50 (M14): 17.4 µM (inactive) | GI50 (HCT-116): 29 µM (inactive) | GI50 (COLO 205): 18 µM (inactive) | GI50 (CCRF-CEM): 5.37 µM (inactive) | GI50 (NCI-H522): 10.7 µM (inactive) | GI50 (RPMI-8226): 12.7 µM (inactive) | GI50 (NCI/ADR-RES): 21.5 µM (inactive) | GI50 (BT-549): 24.1 µM (inactive) | GI50 (MDA-MB-231): 21.3 µM (inactive) | GI50 (SK-OV-3): 31.7 µM (inactive) | GI50 (HL-60): 3.52 µM (inactive) | GI50 (A549): 24.5 µM (inactive) | GI50 (SK-MEL-2): 16.4 µM (inactive) | GI50 (PC-3): 19.8 µM (inactive) | GI50 (UACC-62): 20 µM (inactive) | GI50 (KM12): 20 µM (inactive) | GI50 (SF-539): 22.2 µM (inactive) | GI50 (EKVX): 25.9 µM (inactive) | GI50 (SN12C): 16.6 µM (inactive) | GI50 (OVCAR-4): 21.8 µM (inactive) | GI50 (MOLT-4): 4.39 µM (inactive) | GI50 (UACC-257): 26.5 µM (inactive) | GI50 (SF-268): 22.8 µM (inactive) | GI50 (DU-145): 34.5 µM (inactive) | GI50 (ACHN): 25.6 µM (inactive) | GI50 (K562): 16.6 µM (inactive) | GI50 (NCI-H226): 20.7 µM (inactive) | GI50 (RXF 393): 24.5 µM (inactive) | GI50 (OVCAR-5): 39.1 µM (inactive) | GI50 (SK-MEL-5): 14.8 µM (inactive) | GI50 (HCC 2998): 16.4 µM (inactive) | GI50 (MCF7): 23.8 µM (inactive) | GI50 (U-251): 20.3 µM (inactive) | GI50 (SNB-75): 46.7 µM (inactive) | GI50 (IGROV-1): 23 µM (inactive) | GI50 (SW-620): 29.2 µM (inactive) | GI50 (MDA-MB-435): 18.2 µM (inactive) | GI50 (A498): 23.3 µM (inactive) | GI50 (HT-29): 23.6 µM (inactive) | GI50 (Hs-578T): 28.2 µM (inactive)
